Structures are written as SMILES.

For one data set, the target named is CYP450, 2C19 (Homo sapiens, UniProt P33261). Particulars: 10 µM.
The target of another data set is CYP2D6 (Homo sapiens, UniProt P10635).
Chain of CYP2D6 (P10635 whole entry): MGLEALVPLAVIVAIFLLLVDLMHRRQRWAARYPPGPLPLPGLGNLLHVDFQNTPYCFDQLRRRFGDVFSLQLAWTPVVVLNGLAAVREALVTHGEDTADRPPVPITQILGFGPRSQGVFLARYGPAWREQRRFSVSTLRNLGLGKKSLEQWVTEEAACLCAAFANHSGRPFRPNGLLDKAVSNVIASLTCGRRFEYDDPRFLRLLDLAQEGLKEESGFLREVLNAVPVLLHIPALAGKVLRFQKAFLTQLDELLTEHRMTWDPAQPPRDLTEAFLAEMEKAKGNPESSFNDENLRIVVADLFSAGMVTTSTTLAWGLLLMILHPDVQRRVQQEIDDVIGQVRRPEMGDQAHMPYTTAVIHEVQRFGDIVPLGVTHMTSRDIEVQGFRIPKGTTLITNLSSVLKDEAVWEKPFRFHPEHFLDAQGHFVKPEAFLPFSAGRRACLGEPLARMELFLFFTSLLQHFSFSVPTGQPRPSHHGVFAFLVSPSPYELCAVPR

Chain of CYP450, 2C19 (P33261 whole entry): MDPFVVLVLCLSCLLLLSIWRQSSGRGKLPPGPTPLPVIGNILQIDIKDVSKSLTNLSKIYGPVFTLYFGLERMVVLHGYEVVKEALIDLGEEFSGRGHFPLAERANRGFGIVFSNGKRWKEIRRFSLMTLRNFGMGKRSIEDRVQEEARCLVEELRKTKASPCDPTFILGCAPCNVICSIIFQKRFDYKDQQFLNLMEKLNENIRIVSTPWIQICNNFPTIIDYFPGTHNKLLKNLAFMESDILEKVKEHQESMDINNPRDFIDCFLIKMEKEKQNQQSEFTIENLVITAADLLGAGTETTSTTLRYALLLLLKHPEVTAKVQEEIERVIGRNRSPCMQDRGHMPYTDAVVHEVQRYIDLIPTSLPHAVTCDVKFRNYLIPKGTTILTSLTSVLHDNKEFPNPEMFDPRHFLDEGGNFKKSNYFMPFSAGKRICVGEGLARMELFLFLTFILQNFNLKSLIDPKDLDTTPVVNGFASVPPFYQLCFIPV

A word on the % Inhibition: it is the percentage by which the read-out fell short of the control. A lower % Inhibition goes with a response near the control. `O=C(Nc1nnc(-c2ccc(F)cc2)o1)N1CCc2ccccc2C1` [MBX-4132]: the “% Inhibition” value at CYP450, 2C19 is on record as 44%.
Broadly, the inhibition is the change of the read-out against control, counted positive when it falls. On to `O=C(Nc1nnc(-c2ccc(F)cc2)o1)c1ccc(Oc2ccccc2)nc1` [MBX-4237], for which the inhibition at 10 µM against CYP2D6 is -4%.

For the origin of these results see US11505533B2, “Metabolically stable N-acylaminooxadiazoles useful as antibacterial agents” (MICROBIOTIX, INC., priority 2017, dated 2022).
